Assays:
[1] = target: σ1 receptors; design: method as in PMID 24130175; settings: read-out: Ki (affinity towards σ1 receptors); cited from earlier work
[2] = Acute toxicity study, single intravenous injection; format: in vivo; settings: single intravenous administration, Wistar rats, day 2 and day 15; highest tested dose
Text: Supplementary Materials: Evaluation of the Enantiomer Specific Biokinetics and Radiation Doses of [18F]Fluspidine—A New Tracer in Clinical
Translation for Imaging of σ1 Receptors […]
Supplemental Methods and Results
Animal Toxicity Study of (S)-(−)-Fluspidine
The purpose of this study was to assess the acute toxicity of (S)-(−)-fluspidine when administered by a single intravenous injection to rats followed by an observation period of 2 or 15 day (in accordance with EU cGLP). Briefly, the study was performed with 4 test groups, including 1 control (saline and dimethylsulfoxide) and 3 dose groups (6.2, 62 and 620 µg/kg, (S)- (−)ﬂuspidine), with Wistar rats (60 m, 60 f, 12 weeks) divided into two experiments: day 2 (40 males and 40 females) and day 15 (20 males and 20 females). The animals were weighted and allocated to the test groups based on their actual body weights. The animals were sacrificed at two time periods (day 2 and day 15 after test item administration) and then examined macroscopically and histopathologically. In addition the following parameters were evaluated: mortality, clinical observation (spasms, tremor and hyperactivity), body weights, food consumption, haematology (white blood cells, red blood cells, hemoglobin, hematocrit, mean corpuscular volume, mean corpuscular hemoglobin, platelets, lympohcytes, neutrophils, eosinophils, basophils, monocytes), clinical chemistry (alkaline phosphatase, aspartate aminotransferase, alanine aminotransferase, glucose, cholesterol, triacylglycerols, creatinine, urea, bilirubin, albumin, calcium, phosphorus, sodium, potassium chloride), pathology and histopathology. […]
in either gender were detected. The food consumption corresponded with body weight development. All haematology parameter´s values on day 2 and day 15 were within physiological range for this species. Individual divergences of some values of the haematology parameters were slight and not connected with treatment.
There were no findings in clinical chemistry parameters which could be definitively considered as adverse. The average values of all test groups were within the historical control ranges. Occasional changes had no dose relationship, they were considered to be a result of intraindividual and interindividual variability for this species. […]
histopathological parameters on day 2 and day 15. The no observed effect level (NOEL) of (S)- (−)-fluspidine after single intravenous administration in this study for both day 2 and day 15 was determined to be 620 µg/kg.

SMILES: FCC[C@@H]1OC2(CCN(Cc3ccccc3)CC2)c2ccccc21 [(S)-(−)-[^18F]fluspidine]
- Ki [1]: 2.3 nM
- no observed effect level (NOEL) [2]: ≥ 0.6 mg/kg

Source: paper PMC6273209, “Evaluation of the Enantiomer Specific Biokinetics and Radiation Doses of [^18F]Fluspidine—A New Tracer in Clinical Translation for Imaging of σ1 Receptors” (Molecules, 2016)
